Experimental data: ChEMBL document CHEMBL3352411, “Structure-activity relationships (SAR) and structure-kinetic relationships (SKR) of bicyclic heteroaromatic acetic acids as potent CRTh2 antagonists II: lead optimization” (Bioorg Med Chem Lett, 2014)

system: not listed separately; experiment: Clearance in Wistar rat at 1 mg/kg, iv; format: ADME, organism-based; parameters: dose 1 mg/kg, route intravenous; conditions: in vivo

SMILES | clearance
CCN(Cc1cc(C(F)(F)F)ccc1-c1cn(CC(=O)O)c2ccc(C)nc12)C(=O)C1CC1 | 134 mL/min/kg
CCN(Cc1cc(C(F)(F)F)ccc1-n1cc(CC(=O)O)c2ccc(C)nc21)C(=O)C1CC1 | 14 mL/min/kg
CCN(Cc1cc(F)ccc1-c1cn(CC(=O)O)c2ccccc12)C(=O)C1CC1 | 76 mL/min/kg
CCN(Cc1cc(C(F)(F)F)ccc1-c1cc(CC(=O)O)n2cccnc12)C(=O)C1CC1 | 26 mL/min/kg
CCN(Cc1ccccc1-n1cc(CC(=O)O)c2ccc(C(F)(F)F)cc21)C(=O)C1CC1 | 16 mL/min/kg

target: T1, Prostaglandin D2 receptor 2 (Homo sapiens, UniProt Q9Y5Y4); experiment: Antagonist activity at CRTh2 receptor (unknown origin) overexpressed in CHOK1 cell membranes assessed as inhibition of [35S]-GTPgammaS binding measured after 2 hrs by liquid scintillation counting analysis; format: functional, CHO-K1; conditions: not given
T1 sequence (Q9Y5Y4 whole entry): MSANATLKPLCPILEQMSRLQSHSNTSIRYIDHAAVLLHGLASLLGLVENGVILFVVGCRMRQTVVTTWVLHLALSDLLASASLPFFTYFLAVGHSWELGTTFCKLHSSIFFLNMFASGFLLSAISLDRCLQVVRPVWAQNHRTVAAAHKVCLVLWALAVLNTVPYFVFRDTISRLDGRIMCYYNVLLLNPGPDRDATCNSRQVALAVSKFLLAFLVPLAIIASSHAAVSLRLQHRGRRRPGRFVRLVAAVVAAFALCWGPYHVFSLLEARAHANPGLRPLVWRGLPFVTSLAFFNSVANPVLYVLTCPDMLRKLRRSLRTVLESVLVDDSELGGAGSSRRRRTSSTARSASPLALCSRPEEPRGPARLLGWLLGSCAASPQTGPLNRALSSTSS

SMILES | IC50
Cc1ccc2c(CC(=O)O)cn(-c3ccc(C(F)(F)F)cc3CN(C(=O)C3CC3)C(C)C)c2n1 | 0.028 µM
CCN(Cc1cc(C(F)(F)F)ccc1-c1nn(CC(=O)O)c2cccc(Cl)c12)C(=O)C1CC1 | 0.0063 µM
CCN(Cc1cc(C(F)(F)F)ccc1-c1nn(CC(=O)O)c2cccc(OC)c12)C(=O)C1CC1 | 0.023 µM
CCN(Cc1cc(C(F)(F)F)ccc1-c1cn(CC(=O)O)c2ccc(C)nc12)C(=O)C1CC1 | 0.017 µM
CCc1ccc2c(CC(=O)O)cn(-c3ccc(C(F)(F)F)cc3CN(CC)C(=O)C3CC3)c2n1 | 0.01 µM
CCN(Cc1cc(C(F)(F)F)ccc1-c1nn(CC(=O)O)c2ccc(C)cc12)C(=O)C1CC1 | 0.009 µM
CCN(Cc1cc(F)ccc1-n1cc(CC(=O)O)c2ccc(C)nc21)C(=O)C1CC1 | 0.0047 µM
CCN(Cc1cc(C(F)(F)F)ccc1-c1cc(CC(=O)O)c2ccc(C)nn12)C(=O)C1CC1 | 0.0042 µM
CCN(Cc1cc(C(F)(F)F)ccc1-n1cc(CC(=O)O)c2ccc(C)nc21)C(=O)C1CC1 | 0.01 µM
CCN(Cc1cc(C(F)(F)F)ccc1-n1cc(CC(=O)O)c2ccc(OC)nc21)C(=O)C1CC1 | 0.135 µM
CCN(Cc1cc(C)ccc1-n1cc(CC(=O)O)c2ccc(C)nc21)C(=O)C1CC1 | 0.0059 µM
Cc1ccc2c(CC(=O)O)cn(-c3ccc(C(F)(F)F)cc3CN(CCO)C(=O)C3CC3)c2n1 | 0.014 µM
CCN(Cc1cc(C(F)(F)F)ccc1-n1cc(CC(=O)O)c2ccc(C(F)F)nc21)C(=O)C1CC1 | 0.011 µM
CCN(Cc1cc(C(F)(F)F)ccc1-c1cn(CC(=O)O)c2cccnc12)C(=O)C1CC1 | 0.02 µM
COCCN(Cc1cc(C(F)(F)F)ccc1-n1cc(CC(=O)O)c2ccc(C)nc21)C(=O)C1CC1 | 0.004 µM
CCN(Cc1cc(C(F)(F)F)ccc1-c1nn(CC(=O)O)c2ccc(Cl)c(F)c12)C(=O)C1CC1 | 0.015 µM
CCN(Cc1cc(F)ccc1-c1cn(CC(=O)O)c2ccc(C(F)(F)F)cc12)C(=O)C1CC1 | 0.014 µM
CCN(Cc1cc(C(F)(F)F)ccc1-c1cn(CC(=O)O)c2ccc(C(F)(F)F)nc12)C(=O)C1CC1 | 0.015 µM
CCN(Cc1cc(C(F)(F)F)ccc1-n1cc(CC(=O)O)c2ccc(C(F)(F)F)nc21)C(=O)C1CC1 | 0.054 µM
Cc1ccc2c(CC(=O)O)cn(-c3ccc(C(F)(F)F)cc3CN(CCOc3ccccc3)C(=O)C3CC3)c2n1 | 0.004 µM
CCN(Cc1cc(C(F)(F)F)ccc1-n1cc(CC(=O)O)c2ccc(C)nc21)C(=O)c1ccccn1 | 0.097 µM
CCN(Cc1cc(C(F)(F)F)ccc1-n1cc(CC(=O)O)c2ccc(C)nc21)C(=O)Cc1ccccc1 | 0.006 µM
CCN(Cc1ccccc1-n1cc(CC(=O)O)c2ccc(C(F)(F)F)cc21)C(=O)C1CC1 | 0.011 µM

system: not listed separately; experiment: Mean residence time in Wistar rat at 1 mg/kg, iv; format: ADME, organism-based; parameters: dose 1 mg/kg, route intravenous; conditions: in vivo

SMILES | MRT
CCN(Cc1cc(C(F)(F)F)ccc1-c1cn(CC(=O)O)c2ccc(C)nc12)C(=O)C1CC1 | 0.3 h
CCN(Cc1cc(C(F)(F)F)ccc1-n1cc(CC(=O)O)c2ccc(C)nc21)C(=O)C1CC1 | 2.3 h
CCN(Cc1cc(F)ccc1-c1cn(CC(=O)O)c2ccccc12)C(=O)C1CC1 | 1.2 h
CCN(Cc1cc(C(F)(F)F)ccc1-c1cc(CC(=O)O)n2cccnc12)C(=O)C1CC1 | 2.6 h
CCN(Cc1ccccc1-n1cc(CC(=O)O)c2ccc(C(F)(F)F)cc21)C(=O)C1CC1 | 3.4 h

system: not listed separately; experiment: Terminal half life in Wistar rat at 1 mg/kg, iv; format: ADME, organism-based; parameters: dose 1 mg/kg, route intravenous; conditions: in vivo, read-out: beta t1/2 (converted)

SMILES | half-life
CCN(Cc1cc(C(F)(F)F)ccc1-c1cn(CC(=O)O)c2ccc(C)nc12)C(=O)C1CC1 | 0.5 h
CCN(Cc1cc(C(F)(F)F)ccc1-n1cc(CC(=O)O)c2ccc(C)nc21)C(=O)C1CC1 | 4.9 h
CCN(Cc1cc(F)ccc1-c1cn(CC(=O)O)c2ccccc12)C(=O)C1CC1 | 1.9 h
CCN(Cc1cc(C(F)(F)F)ccc1-c1cc(CC(=O)O)n2cccnc12)C(=O)C1CC1 | 4.6 h
CCN(Cc1ccccc1-n1cc(CC(=O)O)c2ccc(C(F)(F)F)cc21)C(=O)C1CC1 | 6.6 h

target: T2, Prostaglandin D2 receptor 2 (Homo sapiens) (UniProt Q9Y5Y4); experiment: Binding affinity to CRTh2 receptor (unknown origin) overexpressed in CHOK1 cell membranes assessed as dissociation half life at 10 times IC50 concentration preincubated for 1 hr with 0.1 nM to 100 uM PGD2 and [35S]-GTPgammaS by liquid scintillation counting analysis; format: functional; conditions: CHO-K1
T2 sequence (whole entry): T1 sequence (Q9Y5Y4 whole entry)

SMILES | T1/2
Cc1ccc2c(CC(=O)O)cn(-c3ccc(C(F)(F)F)cc3CN(C(=O)C3CC3)C(C)C)c2n1 | 9.2 h
CCN(Cc1cc(C(F)(F)F)ccc1-c1nn(CC(=O)O)c2cccc(Cl)c12)C(=O)C1CC1 | 3.2 h
CCN(Cc1cc(C(F)(F)F)ccc1-c1nn(CC(=O)O)c2cccc(OC)c12)C(=O)C1CC1 | 2.4 h
CCN(Cc1cc(C(F)(F)F)ccc1-c1cn(CC(=O)O)c2ccc(C)nc12)C(=O)C1CC1 | 21 h
CCc1ccc2c(CC(=O)O)cn(-c3ccc(C(F)(F)F)cc3CN(CC)C(=O)C3CC3)c2n1 | 9.9 h
CCN(Cc1cc(C(F)(F)F)ccc1-c1nn(CC(=O)O)c2ccc(C)cc12)C(=O)C1CC1 | 1.8 h
CCN(Cc1cc(F)ccc1-n1cc(CC(=O)O)c2ccc(C)nc21)C(=O)C1CC1 | 11 h
CCN(Cc1cc(C(F)(F)F)ccc1-c1cc(CC(=O)O)c2ccc(C)nn12)C(=O)C1CC1 | 26 h
CCN(Cc1cc(C(F)(F)F)ccc1-n1cc(CC(=O)O)c2ccc(C)nc21)C(=O)C1CC1 | 21 h
CCN(Cc1cc(F)ccc1-c1cn(CC(=O)O)c2ccccc12)C(=O)C1CC1 | 2 h
CCN(Cc1cc(C)ccc1-n1cc(CC(=O)O)c2ccc(C)nc21)C(=O)C1CC1 | 24 h
Cc1ccc2c(CC(=O)O)cn(-c3ccc(C(F)(F)F)cc3CN(CCO)C(=O)C3CC3)c2n1 | 7.8 h
CCN(Cc1cc(C(F)(F)F)ccc1-n1cc(CC(=O)O)c2ccc(C(F)F)nc21)C(=O)C1CC1 | 29 h
CCN(Cc1cc(C(F)(F)F)ccc1-c1cn(CC(=O)O)c2cccnc12)C(=O)C1CC1 | 1.9 h
COCCN(Cc1cc(C(F)(F)F)ccc1-n1cc(CC(=O)O)c2ccc(C)nc21)C(=O)C1CC1 | 7 h
CCN(Cc1cc(C(F)(F)F)ccc1-c1nn(CC(=O)O)c2ccc(Cl)c(F)c12)C(=O)C1CC1 | 10.5 h
CCN(Cc1cc(F)ccc1-c1cn(CC(=O)O)c2ccc(C(F)(F)F)cc12)C(=O)C1CC1 | 20 h
CCN(Cc1cc(C(F)(F)F)ccc1-c1cn(CC(=O)O)c2ccc(C(F)(F)F)nc12)C(=O)C1CC1 | 25 h
Cc1ccc2c(CC(=O)O)cn(-c3ccc(C(F)(F)F)cc3CN(CCOc3ccccc3)C(=O)C3CC3)c2n1 | 40 h
CCN(Cc1cc(C(F)(F)F)ccc1-n1cc(CC(=O)O)c2ccc(C)nc21)C(=O)Cc1ccccc1 | 24 h
CCN(Cc1cc(C(F)(F)F)ccc1-c1cc(CC(=O)O)n2cccnc12)C(=O)C1CC1 | 2 h
CCN(Cc1ccccc1-n1cc(CC(=O)O)c2ccc(C(F)(F)F)cc21)C(=O)C1CC1 | 27 h

system: not listed separately; experiment: Oral bioavailability in Wistar rat at 10 mg/kg; format: ADME, organism-based; conditions: in vivo

SMILES | bioavailability
CCN(Cc1cc(C(F)(F)F)ccc1-n1cc(CC(=O)O)c2ccc(C)nc21)C(=O)C1CC1 | 27%

system: not listed separately; experiment: AUC (0 to infinity) in Wistar rat at 1 mg/kg, iv; format: ADME, organism-based; parameters: time infinity, dose 1 mg/kg, route intravenous; conditions: plasma

SMILES | AUC(0-inf)
CCN(Cc1cc(C(F)(F)F)ccc1-c1cn(CC(=O)O)c2ccc(C)nc12)C(=O)C1CC1 | 126 ng·h/mL
CCN(Cc1cc(C(F)(F)F)ccc1-n1cc(CC(=O)O)c2ccc(C)nc21)C(=O)C1CC1 | 1220 ng·h/mL
CCN(Cc1cc(F)ccc1-c1cn(CC(=O)O)c2ccccc12)C(=O)C1CC1 | 222 ng·h/mL
CCN(Cc1cc(C(F)(F)F)ccc1-c1cc(CC(=O)O)n2cccnc12)C(=O)C1CC1 | 639 ng·h/mL
CCN(Cc1ccccc1-n1cc(CC(=O)O)c2ccc(C(F)(F)F)cc21)C(=O)C1CC1 | 1070 ng·h/mL

system: not listed separately; experiment: Cmax in Wistar rat at 1 mg/kg, iv; format: ADME, organism-based; parameters: dose 1 mg/kg, route intravenous; conditions: in vivo

SMILES | Cmax
CCN(Cc1cc(C(F)(F)F)ccc1-c1cn(CC(=O)O)c2ccc(C)nc12)C(=O)C1CC1 | 366 ng/mL
CCN(Cc1cc(C(F)(F)F)ccc1-n1cc(CC(=O)O)c2ccc(C)nc21)C(=O)C1CC1 | 1610 ng/mL
CCN(Cc1cc(F)ccc1-c1cn(CC(=O)O)c2ccccc12)C(=O)C1CC1 | 431 ng/mL
CCN(Cc1cc(C(F)(F)F)ccc1-c1cc(CC(=O)O)n2cccnc12)C(=O)C1CC1 | 910 ng/mL
CCN(Cc1ccccc1-n1cc(CC(=O)O)c2ccc(C(F)(F)F)cc21)C(=O)C1CC1 | 1900 ng/mL

system: not listed separately; experiment: Volume of distribution at steady state in Wistar rat at 1 mg/kg, iv; format: ADME, organism-based; parameters: dose 1 mg/kg, route intravenous; conditions: in vivo, read-out: Vdss

SMILES | Vd
CCN(Cc1cc(C(F)(F)F)ccc1-c1cn(CC(=O)O)c2ccc(C)nc12)C(=O)C1CC1 | 2.7 L/kg
CCN(Cc1cc(C(F)(F)F)ccc1-n1cc(CC(=O)O)c2ccc(C)nc21)C(=O)C1CC1 | 1.8 L/kg
CCN(Cc1cc(F)ccc1-c1cn(CC(=O)O)c2ccccc12)C(=O)C1CC1 | 5.4 L/kg
CCN(Cc1cc(C(F)(F)F)ccc1-c1cc(CC(=O)O)n2cccnc12)C(=O)C1CC1 | 4.2 L/kg
CCN(Cc1ccccc1-n1cc(CC(=O)O)c2ccc(C(F)(F)F)cc21)C(=O)C1CC1 | 3.2 L/kg
